pIC50: −log10 of the molar value.
Columns and labels:
BACE1 [1] = biological target: T1, BACE1 (Homo sapiens, UniProt P56817); assay: Cell-based BACE1 assay (sAPPβ ELISA-SEAP), SY5Y-BACEGFP-SEAPAPPwt stable cells; settings: 6 hours, 96-well; TAPI-2 100 mM, BACE inhibitor IV 5 mM, AEBSF 500 mM, Cpd E 20 nM
T1 construct: expressed in transfected cells
Procedure: […] cells expressing BACEGFP and SEAPAPPwt were grown on standard cell culture plates in DMEM (Invitrogen) supplemented with 10% fetal bovine serum, 1% Pen/Strep/Glutamine, and 250 μg/ml zeocin. SEAPAPPwt is cleaved by BACE1 (β-secretase) as well as a secretase to release large extracellular fragments sAPPβ and sAPPα, respectively. Cell culture media containing these fragments was harvested and SEAP-sAPPβ was captured using 96-well plates coated with the sAPPβ specific antibody (sβwt). The ELISA plate was then incubated with the fluorescent alkaline phosphatase substrate 4-MUP (Sigma) at a final concentration of 30 μM (in 100 mM glycine, 1 mM MgCl2, 1 mM ZnCl2 at pH 9.8) for 1 hour before detection (excitation: 360 nm, emission: 449 nm).
SY5Y-BACEGFP-SEAPAPPwt stable cells were grown to 100% confluence on 96-well plates in quadruplicate and incubated for 6 hours with DMSO, TAPI-2 ([…]), RACE inhibitor IV ([…]), AEBSF ([…]), or Cpd E (20 nM) in […] of conditioned media (DMEM (invitrogen) supplemented with 10% fetal bovine serum, 1% Pen/Strep/Glutamine, and 250 μg/ml zeocin).
A sAPPβ ELISA-SEAR assay was conducted using […] of media.
Media was collected after 6 hrs incubation and […] was used in the BACE1 assay as described above.

[2] = test system: SY5Y-BACEGFP-SEAPAPPwt stable cells; settings: at concentrations used; data not shown
HEK293-APPNFEV cells = settings: read-out: reported IC50; cited from earlier work
BACE1 [3] = biological target: T2, BACE1 (Mus musculus, UniProt P56818); settings: mouse model of AD; cited from earlier work
T2 construct: host or cells: mouse model of AD

[4] = p-glycoprotein inhibitor required to increase transport; cited from earlier work

T1 sequence (P56817 46-501): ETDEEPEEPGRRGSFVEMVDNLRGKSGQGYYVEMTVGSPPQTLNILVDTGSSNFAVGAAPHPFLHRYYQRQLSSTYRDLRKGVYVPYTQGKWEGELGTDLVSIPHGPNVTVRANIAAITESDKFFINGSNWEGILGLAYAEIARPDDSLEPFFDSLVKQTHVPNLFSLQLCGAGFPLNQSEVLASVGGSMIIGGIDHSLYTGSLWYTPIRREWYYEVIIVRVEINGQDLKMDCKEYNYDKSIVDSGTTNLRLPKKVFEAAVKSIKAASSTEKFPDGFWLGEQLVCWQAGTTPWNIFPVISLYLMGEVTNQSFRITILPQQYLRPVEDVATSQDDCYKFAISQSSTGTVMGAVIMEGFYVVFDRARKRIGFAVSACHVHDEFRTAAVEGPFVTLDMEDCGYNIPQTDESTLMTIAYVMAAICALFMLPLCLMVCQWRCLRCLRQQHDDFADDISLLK
T2 sequence (P56818 46-501): as the sequence (P56817 46-501) above, with P6S, V162I, L165I, S180T, V182A, I340V, L393A, Q443H counted along it

| Structure (SMILES) | effect on sAPPβ (BACE1 [1]) | cellular toxicity [2] | also measured |
| --- | --- | --- | --- |
| NCCc1ccc(S(=O)(=O)F)cc1 [AEBSF] | dramatically reduced | do not exhibit significant cellular toxicity |  |
| C[C@@H](NC(=O)c1cc(C(=O)N[C@@H](Cc2ccccc2)[C@H](O)CNC2CC2)cc(N(C)S(C)(=O)=O)c1)c1ccccc1 [BACE inhibitor IV] |  | do not exhibit significant cellular toxicity | pIC50 (HEK293-APPNFEV cells): 7.54 |
| C[C@H](NC(=O)Cc1cc(F)cc(F)c1)C(=O)N[C@H]1N=C(c2ccccc2)c2ccccc2N(C)C1=O [CpdE] | no effect |  |  |
| CCNc1cc(C(=O)N[C@@H](Cc2ccccc2)[C@H](O)CNCc2cccc(C(F)(F)F)c2)c(F)c(N2CCCCS2(=O)=O)c1 [GSK188909] |  |  | in vivo efficacy (BACE1 [3]): in vivo efficacy; brain penetration [4]: low brain penetration |
| CC(C)C[C@H](CC(=O)NO)C(=O)N[C@H](C(=O)N[C@@H](C)C(=O)NCCN)C(C)(C)C [TAPI-2] | no effect |  |  |
